Tests used:
[1] = tested on: BaF3 expressing FIG-ROS(S); assay: MTS assay, growth of BaF3 cells expressing FIG-ROS(S); format: cell-based; settings: for IC50: Mus musculus, BaF3, 72 h
Procedure: (§1) BaF3 and Karpas 299 cells were obtained from DSMZ (Deutsche Sammlung von Mikroorganismen and Zellkulturen GmbH, Germany). BaF3 cells, which need interleukin-3 to survive, were maintained at 37° C. in RPMI-1640 medium (Invitrogen) with 10% fetal bovine serum (FBS) (Sigma) and 1.0 ng/ml murine IL-3 (R&D Systems). Karpas 299 cells (a lymphoma cell line) were grown in RPMI-1640 with 10% FBS.
(§2) BaF3 cells were transduced with retrovirus encoding FIG-ROS(S), FIG-ROS(L), or FLT-3ITD (the Internal tandem duplication mutation in FLT3 causes AML leukemia), and selected for IL3 independent growth. Karpas 299 cells, which express NPM-ALK, was used as a positive control. Retroviruses were generated as previously described (see PCT Publication No. WO 2010/093928, incorporated by reference).
(§3) A MTS assay was performed using the CellTiter 96 Aqueous One Solution Reagent (Promega, Catalog No G3582). […] After 72 hours, 20 μl of the CellTiter 96 Aqueous One Solution Reagent was added into each well of a 96 well assay plate (flat bottom), and then 100 μl of cells grown with or without treatment. Media-only wells were used as controls. The 96 well plate was incubated for 1-4 hours at 37° C., and then viable cells were counted by reading the absorbance at 490 nm using a 96 well plate reader.

[2] = tested on: BaF3 cells expressing FIG-ROS(S); assay: Flow cytometry, cleaved caspase-3 as apoptosis marker, BaF3 FIG-ROS(S); format: cell-based; settings: in the presence of TAE-684, FIG. 19
From the text: (§4) The mechanism of death of the BaF3 and Karpas 299 cells was next assessed by measuring the percentage of cleaved-caspase 3 positive cells by flow cytometry assay using cleaved caspase-3 as a marker for apoptosis.

Karpas 299 cells [3] = assay: Flow cytometry, cleaved caspase-3 as apoptosis marker, Karpas 299; format: cell-based; settings: in the presence of TAE-684, FIG. 19
From the text: as §4

FIG-ROS(L) = FIG-ROS(L) (Homo sapiens, UniProt P08922); assay: Western blotting of phosphorylation in FIG-ROS(L) expressing BaF3 cells; format: cell-based
From the text: (§5) All antibodies were from Cell Signaling Technology, Inc. (Danvers, Mass.)
(§6) Since ROS, ALK, LTK, InsR, and IGF1R belong to the same family of tyrosine kinases, they may share similar structure in the kinase domain.

[4] = tested on: BaF3 expressing FIG-ROS(L); assay: MTS assay, growth of BaF3 cells expressing FIG-ROS(L); format: cell-based; settings: for IC50: Mus musculus, BaF3, 72 h
Procedure: as §1, §2, §3

ALK in Karpas 299 cells = assay: Western blotting of phosphorylation in Karpas 299 cells; format: cell-based; settings: 0, 10, 50, or 100 nM for three hours, FIG. 20
From the text: as §5, §6

BaF3 expressing FLT3ITD = assay: cells; settings: for IC50: Mus musculus, BaF3, 72 h
Procedure: as §1, §2, §3

Karpas 299 cells [5] = assay: cells; settings: for IC50: Homo sapiens, KARPAS-299, 72 h
Procedure: as §1, §2, §3

[6] = tested on: BaF3 cells transduced with neo-myc; assay: MTS assay, growth of BaF3 cells transduced with neo-myc (negative control); format: cell-based; settings: Mus musculus, 72 hours, second experiment only
Procedure: as §1, §3

[7] = tested on: BaF3 cells transduced with the FLT-3ITD retrovirus; assay: Western blotting of phosphorylation in BaF3 cells transduced with the FLT-3ITD retrovirus; format: cell-based
From the text: as §5, §6

FIG-ROS(S) = target: T1, FIG-ROS(S) (Homo sapiens, UniProt P08922); assay: Western blotting of phosphorylation in FIG-ROS(S) expressing BaF3 cells; format: cell-based
T1 construct: expressed in transfected cells; host or cells: BaF3 cells, retrovirally transduced, selected for IL3-independent growth
From the text: as §5, §6

[8] = tested on: BaF3 cells expressing FIG-ROS(L); assay: Flow cytometry, cleaved caspase-3 as apoptosis marker, BaF3 FIG-ROS(L); format: cell-based; settings: in the presence of TAE-684, FIG. 19
From the text: as §4

[9] = 72 hours, first of two experiments
[10] = 72 hours, second of two experiments
[11] = same concentration of each, 0-1.0 uM, FIG. 21A/21B
[12] = 0, 10, 50, or 100 nM for three hours, FIG. 20
[13] = 0, 0.1, 0.3, or 1.0 uM for three hours, FIG. 22

## COc1cc(N2CCC(N3CCN(C)CC3)CC2)ccc1Nc1ncc(Cl)c(Nc2ccccc2S(=O)(=O)C(C)C)n1 [TAE-684]
[1]; 0-1000 nM, 72 hours, FIG. 18
  cellular growth response in the presence of TAE-684: stopped growing
[1]; [9]
  IC50: 10.2 nM
[1]; [10]
  IC50: 15 nM
[1]; [11]
  sensitivity of cellular growth, TAE-684 compared with crizotinib: more sensitive to TAE-684 than to crizotinib
[2]
  mechanism of death, cleaved-caspase 3 positive cells (apoptosis): die by apoptosis
Karpas 299 cells [3]
  mechanism of death, cleaved-caspase 3 positive cells (apoptosis): did not die by apoptosis
FIG-ROS(L); [12]
  phosphorylation of FIG-ROS(L): inhibited
  phosphorylation of STAT3, AKT, and ERK, and Shp2: inhibited
[4]; 0-1000 nM, 72 hours, FIG. 18
  cellular growth response in the presence of TAE-684: stopped growing
[4]; [9]
  IC50: 1.78 nM
[4]; [10]
  IC50: 2.84 nM
[4]; [11]
  sensitivity of cellular growth, TAE-684 compared with crizotinib: more sensitive to TAE-684 than to crizotinib
ALK in Karpas 299 cells
  ALK and ERK phosphorylation: inhibited
BaF3 expressing FLT3ITD; 0-1000 nM, 72 hours, FIG. 18
  cellular growth response in the presence of TAE-684: not susceptible
BaF3 expressing FLT3ITD; first of two experiments
  IC50: 419 nM
BaF3 expressing FLT3ITD; second of two experiments
  IC50: 316 nM
Karpas 299 cells [5]; 0-1000 nM, 72 hours, FIG. 18
  cellular growth response in the presence of TAE-684: stopped growing
Karpas 299 cells [5]; first of two experiments
  IC50: 4.85 nM
Karpas 299 cells [5]; second of two experiments
  IC50: 4.36 nM
[6]
  IC50: 1640 nM
[7]; [12]
  phosphorylation of STAT3, AKT, and ERK, and Shp2: not affected
FIG-ROS(S); [12]
  phosphorylation of FIG-ROS(S): inhibited
  phosphorylation of STAT3, AKT, and ERK, and Shp2: inhibited
[8]
  mechanism of death, cleaved-caspase 3 positive cells (apoptosis): die by apoptosis

## C[C@@H](Oc1cc(-c2cnn(C3CCNCC3)c2)cnc1N)c1c(Cl)ccc(F)c1Cl [crizotinib]
FIG-ROS(L); [13]
  phosphorylation of FIG-ROS(L): inhibited
  phosphorylation of STAT3 and ERK: inhibited
[7]; [13]
  phosphorylation of STAT3 and ERK: not affected
FIG-ROS(S); [13]
  phosphorylation of FIG-ROS(S): inhibited
  phosphorylation of STAT3 and ERK: inhibited

From patent US11099188B2, “ROS kinase in lung cancer” (CELL SIGNALING TECHNOLOGY, INC., priority 2006, dated 2021)
